pIC50: −log10 of the molar value. Where two headings read alike, the source gives them in different places.
Columns and labels:
LNCaP cells = assay: Inhibition of LNCaP prostate carcinoma cell line proliferation (WST-1); type: cell-based; details: Homo sapiens, 48 h; cytotoxicity on LNCaP cells, two days incubation, WST-1 read-out
Protocol: LNCaP cell line, a prostate carcinoma cell line, was grown in RPMI-1640 medium (Lonza, Belgium) supplemented with 10% fetal calf serum (Hyclone, US) and antibiotics. Exponential growing phase cells were seed in flat bottom 96-well microplates (TTP, Switzerland) at 10000 cells per well in 200 μl of medium. The day after, 20 μl of compounds (in different concentrations) were added and incubated for two days at 37° C., 5% CO2. After incubation, 100 μl of supernatant were removed and 10 μl of WST-1 (Roche, Switzerland) were added. After 2 hour incubation at 37° C., 5% CO2, optical densities were measured at 450 nm. Proliferation is calculated with respect of control points (no compound and treatment with Triton X100 to have maximum and minimum proliferation data). The IC50 was determined from a graph with at least four points, each derived from the mean of at least 2 experiments. […] The results are shown in Table 3 for a number of compounds.

HSB-2 cells = assay: Inhibition of HSB-2 leukemic cell line proliferation (WST-1); type: cell-based, human; details: Homo sapiens, HSB2, 48 h, cytotoxicity on HSB-2 cells, two days incubation, WST-1 read-out
How it was run: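 HSB-2 human ALL cells, 50000/well in RPMI-1640 + 10% FCS, exposed to compounds 2 days at 37 °C, then WST-1 2 h, OD 450 nm. Proliferation scaled between untreated (max) and Triton X100 (min) controls; IC50 from ≥4-point curves, each point mean of ≥2 experiments.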

HL-60 cells = assay: Inhibition of HL-60 leukemic cell line proliferation (WST-1); type: cell-based, human; details: Homo sapiens, 48 h; cytotoxicity on HL-60 cells, two days incubation, WST-1 read-out
How it was run: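 HL-60 cells, 50000/well, exposed to compounds for two days at 37 °C, then 2 h WST-1 with OD at 450 nm. Proliferation scaled between untreated and Triton X100 controls; IC50 from at least four points, each a mean of ≥2 experiments.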

hu EOL-1 leukemia = details: for effect on tumour growth (tumour volume) relative to vehicle: s.c. EOL-1 tumours in NSG mice, therapy from day 10 to day 21
Protocol: The test compound (Example 222) was dissolved in DMSO (5% final concentration) and further solubilised in 0.5% Tween 80 in 1% methylcellulose. The resulting suspension was warmed for 10 minutes to 37° C. in an ultrasound water bath to obtain a homogeneous formulation for oral administration. At day 0, 24 male NSG mice received a s.c. inoculum of 10^7 EOL-1 cells taken from in vitro culture and mixed with 50% matrigel. At day 10 tumours were palpable, mice were randomized into three treatment groups and therapy initiated. The test compound (Example 222) and the vehicle were administered orally (p.o.) once daily until the end of the experiment. Cyclophosphamide was administered only once intraperitoneally (i.p.).

[1] = Example 222 p.o. once daily, cyclophosphamide once i.p.
[2] = EOL-1 xenograft in NSG mice, Example 222 p.o. once daily, cyclophosphamide once i.p.

| Compound | pIC50 (LNCaP cells) | pIC50 (HSB-2 cells) | pIC50 (HL-60 cells) | further results |
| --- | --- | --- | --- | --- |
| CCOc1nc(N)nc2sc(-c3ccc(F)cc3)cc12 [Example 363, 4-ethoxy-6-(4-fluorophenyl)thieno[2,3-d]pyrimidin-2-amine] | – | – | – | melting point: 142 °C |
| CC(C)(Oc1ccc(Cl)cc1)C(=O)N1CCN(c2nc(N)nc3sc(-c4cccnc4)nc23)CC1 [Example 274, 1-(4-(5-amino-2-(pyridin-3-yl)thiazolo[5,4-d]pyrimidin-7-yl)piperazin-1-yl)-2-(4-chlorophenoxy)-2-methylpropan-1-one] | 4.74 | – | – | – |
| Cc1ccc(NC(=O)N2CCN(c3nc(N)nc4sc(-c5cccnc5)nc34)CC2)cc1 [Example 222, 4-(5-amino-2-(pyridin-3-yl)thiazolo[5,4-d]pyrimidin-7-yl)-N-p-tolylpiperazine-1-carboxamide] | 5.54 | 7.30 | 7.30 | behavioural changes or deaths (hu EOL-1 leukemia; EOL-1 xenograft in NSG mice, Example 222 p.o. once daily): did not lead to any behavioural changes or deaths; antileukemic activity (hu EOL-1 leukemia; EOL-1 xenograft model, conclusion): significant antileukemic activity; body weight loss (hu EOL-1 leukemia; mouse, in vivo): 11%; tolerability (hu EOL-1 leukemia; mouse, in vivo): well tolerated; effect on tumour growth (tumour volume) relative to vehicle (hu EOL-1 leukemia; [1]): moderate but significant (p<0.05) delay of tumour growth |
| Nc1nc(N2CCN(C(=O)COc3ccc(Cl)cc3)CC2)c2nc(-c3cccnc3)sc2n1 [Example 121a, 5-amino-7-[4-(4-chlorophenoxyacetyl)piperazin-1-yl]-2-(pyridine-3-yl)thiazolo[5,4-d]pyrimidine] | 4.32 | 6.70 | 6.64 | – |
| O=P1(N(CCCl)CCCl)NCCCO1 (stereo not drawn) [Cyclophosphamide, reference compound] | – | – | – | body weight loss (hu EOL-1 leukemia; [2]): 6%; tolerability (hu EOL-1 leukemia; [2]): well tolerated; effect on tumour growth (tumour volume) relative to vehicle (hu EOL-1 leukemia; [1]): highly significant (p<0.05) inhibition of tumour growth |
| Cc1cccc(NC(=O)N2CCN(c3nc(N)nc4sc(-c5cccnc5)nc34)CC2)c1 [Example 276, 4-(5-amino-2-(pyridin-3-yl)thiazolo[5,4-d]pyrimidin-7-yl)-N-m-tolylpiperazine-1-carboxamide] | 5.52 | 7.30 | 7.22 | – |
| Cc1cccc(OCC(=O)N2CCN(c3nc(N)nc4sc(-c5cccnc5)nc34)CC2)c1 [Example 275, 1-(4-(5-amino-2-(pyridin-3-yl)thiazolo[5,4-d]pyrimidin-7-yl)piperazin-1-yl)-2-(m-tolyloxy)ethanone] | 5.96 | 7.15 | 7.30 | – |
| Nc1nc(N2CCN(C(=O)Nc3ccccc3)CC2)c2nc(-c3cccnc3)sc2n1 [Example 440, 4-(5-amino-2-(pyridin-3-yl)thiazolo[5,4-d]pyrimidin-7-yl)-N-phenylpiperazine-1-carboxamide] | 4.77 | 7.24 | 7.19 | – |
| Cc1cccc(NC(=O)N2CCN(c3nc(N)nc4sc(-c5ccccc5)nc34)CC2)c1 [Example 220, 4-(5-amino-2-phenylthiazolo[5,4-d]pyrimidin-7-yl)-N-m-tolylpiperazine-1-carboxamide] | 4.95 | 6.11 | 6.04 | – |
| Nc1nc(N2CCN(C(=O)Nc3ccc(Cl)cc3)CC2)c2nc(-c3cccnc3)sc2n1 [Example 277, 4-(5-amino-2-(pyridin-3-yl)thiazolo[5,4-d]pyrimidin-7-yl)-N-(4-chlorophenyl)piperazine-1-carboxamide] | – | 6.13 | 6.08 | – |
| COc1ccc(OCC(=O)N2CCN(c3nc(N)nc4sc(-c5cccnc5)nc34)CC2)cc1 [Example 271, 1-(4-(5-amino-2-(pyridin-3-yl)thiazolo[5,4-d]pyrimidin-7-yl)piperazin-1-yl)-2-(4-methoxyphenoxy)ethanone] | < 4.00 | 7.22 | 7.00 | – |
